In paper PMC3514216, “SRC Homology 2 Domain Binding Sites in Insulin, IGF-1 and FGF receptor mediated signaling networks reveal an extensive potential interactome” (Cell Communication and Signaling : CCS, 2012):
Positions count from the first letter of the chain named.

What was measured:
Abl2 SH2 domain [1] = biological target: T1, Abl2 SH2 domain (Homo sapiens, UniProt P42684); test: SPOT peptide array; type: binding; details: spot intensity as factor of array mean; GST-SH2 0.25 μM
T1 sequence (P42684 173-263 limits assumed): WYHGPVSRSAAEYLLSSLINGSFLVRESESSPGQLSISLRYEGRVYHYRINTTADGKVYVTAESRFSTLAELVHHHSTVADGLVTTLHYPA
In short: (§1)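 Semi-quantitative binding scored against the membrane average: positive above 3× mean, negative below mean. Probe was a GST–SH2 fusion on SPOT arrays of pTyr 11-mers, detected with anti-GST antibody plus near-infrared secondary.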

Crk SH2 domain = Crk SH2 domain (Homo sapiens, UniProt P46108); test: SPOT peptide array; type: binding; details: spot intensity as factor of array mean; GST-SH2 0.25 μM
Chain of Crk SH2 domain (P46108 13-118 limits assumed): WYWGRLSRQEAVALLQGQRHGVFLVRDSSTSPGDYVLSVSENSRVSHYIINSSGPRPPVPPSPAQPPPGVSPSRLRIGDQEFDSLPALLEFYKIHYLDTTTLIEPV
In short: as §1

CrkL SH2 domain [2] = biological target: T2, CrkL SH2 domain (Homo sapiens, UniProt P46109); test: SPOT peptide array; type: binding; details: spot intensity as factor of array mean; GST-SH2 0.25 μM
T2 sequence (P46109 14-102 limits assumed): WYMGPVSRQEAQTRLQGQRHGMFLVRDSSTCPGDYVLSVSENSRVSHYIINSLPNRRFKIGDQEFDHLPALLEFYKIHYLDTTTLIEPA
In short: as §1

Shc1 SH2 domain = biological target: T3, Shc1 SH2 domain (Homo sapiens, UniProt P29353); test: SPOT peptide array; type: binding; details: GST-SH2 0.25 μM, membrane-bound peptide, 1 mM DTT, LiCor read-out
T3 sequence (P29353 488-579 limits assumed): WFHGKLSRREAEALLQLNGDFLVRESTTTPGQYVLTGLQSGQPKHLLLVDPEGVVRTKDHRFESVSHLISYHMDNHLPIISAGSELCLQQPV
In short: as §1

Grb2 SH2 domain = Grb2 SH2 domain (Homo sapiens, UniProt P62993); design: method as in earlier work; details: SH2 protein microarray; N.B. = non binding; read-out: Protein Microarray (Macbeath) – KD; cited from earlier work
Chain of Grb2 SH2 domain (P62993 60-152 limits assumed): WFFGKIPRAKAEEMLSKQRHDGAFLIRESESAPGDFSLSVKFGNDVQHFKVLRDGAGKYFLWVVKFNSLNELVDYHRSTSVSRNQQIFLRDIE

Abl2 SH2 domain [3] = biological target: T1, Abl2 SH2 domain; design: method as in earlier work; details: SH2 protein microarray; N.B. = non binding; read-out: Protein Microarray (Macbeath) – KD; cited from earlier work
CrkL SH2 domain [4] = biological target: T2, CrkL SH2 domain; test: Fluorescence polarization solution binding; details: Rhodamine B-labeled peptide, GST-SH2, Beacon 2000, read-out: Affinity (KD)
Source text: To verify the binding results obtained from addressable peptide arrays we employed an orthogonal method of determining SH2 interactions with peptide ligands. We measured the dissociation constants of 60 binary SH2-peptide pairs in solution by fluorescence polarization (Table 2, Additional file 2: Figures S3A-C).
Peptides were synthesized using FMOC-chemistry onto pre-loaded tenta-gel resins. Peptides were then labeled with Rhodamine B (Abbey Color) and then cleaved using trifluoroacetic acid. Peptides were lyophilized and then purified using a LC/MS (Agilent 2100). Dissociation constants were measured using the Beacon 2000 (Invitrogen) as previously described.
Binding Affinities determined by Fluorescence Polarization. Rhodamine B-labeled peptides were mixed with varying concentrations of GST-tagged SH2 domains. Fluorescence polarization measurements were read on a Beacon 2000 (Invitrogen). The curves were fit to a Michaelis-Menten equation to calculate the dissociation constant, KD. […] (C) Affinity measurements that fell below the 2X mean intensity and were considered array negative on the SPOT array.

Abl1 SH2 domain = biological target: T4, Abl1 SH2 domain (Homo sapiens, UniProt P00519); test: SPOT peptide array; type: binding; details: GST-SH2 0.25 μM, membrane-bound peptide, 1 mM DTT, LiCor read-out
T4 sequence (P00519 127-217 limits assumed): T1 sequence (P42684 173-263 limits assumed) with S9N, L18G, L35R, T53A, A54S, V58L, T61S, A62S, S67N, V84I
In short: as §1

Nck1 SH2 domain = Nck1 SH2 domain (Homo sapiens, UniProt P16333); test: SPOT peptide array; type: binding; details: GST-SH2 0.25 μM, membrane-bound peptide, 1 mM DTT, LiCor read-out
In short: as §1

panel of 50 SH2 domains = test: SPOT peptide array probed with each of 50 GST-SH2 domains; type: binding; details: SH2 domains with intensity >3X array mean; GST-SH2 0.25 μM, 1 mM DTT
In short: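 Each GST-fused SH2 domain was overlaid on 192 membrane-synthesized pTyr peptides (11-mers, 4 N-terminal and 6 C-terminal flanking residues) and read with anti-GST and near-infrared secondary antibodies. Binding called relative to membrane mean intensity (>3× positive, <1× negative); GST-only probes defined nonspecific peptides.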

[5] = test system: Ptpn11 SH2 domain (N or C not specified); test: SPOT peptide array; type: binding; details: GST-SH2 0.25 μM, membrane-bound peptide, 1 mM DTT, LiCor read-out
In short: as §1

Ptpn11_C SH2 domain = test: SPOT peptide array; type: binding; details: spot intensity as factor of array mean; GST-SH2 0.25 μM
In short: as §1

Ptpn11_N SH2 domain = biological target: T5, Ptpn11_N SH2 domain (Homo sapiens, UniProt Q06124); test: SPOT peptide array; type: binding; details: spot intensity as factor of array mean; GST-SH2 0.25 μM
T5 sequence (Q06124 6-102 limits assumed): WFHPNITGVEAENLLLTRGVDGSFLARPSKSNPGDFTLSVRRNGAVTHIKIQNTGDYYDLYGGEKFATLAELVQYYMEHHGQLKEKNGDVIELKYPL
In short: as §1

Molecule: SSKDLVSCApYQVARGMED
- Peptide array intensity (X mean) (Abl2 SH2 domain [1]): <2x X Mean
- Peptide array intensity (X mean) (Crk SH2 domain): <2x X Mean
- Peptide array intensity (X mean) (CrkL SH2 domain [2]): <2x X Mean

Molecule: HDGLpYQGLSTA [11-mer phosphotyrosine control peptide, CD150 (Y142)]
- Array positive (Shc1 SH2 domain): No (Peptide spots with average intensity values between 1X-3X the array mean were defined as ‘indeterminate’. Those with intensities below 1X mean were defined as array negative)

Molecule: EIFTLGGSPpYPGVPVEED (EIFTLGGSPYPGVPVEED)
- Kd (Grb2 SH2 domain): 140 nM
- Kd (Abl2 SH2 domain [3]): 400 nM

Molecule: CC(C)C[C@H](NC(=O)[C@H](CCC(=O)O)NC(=O)[C@H](Cc1ccc(OP(=O)(O)O)cc1)NC(=O)[C@H](CCC(=O)O)NC(=O)[C@H](CO)NC(=O)[C@@H](NC(=O)CN)C(C)C)C(=O)N1CCC[C@H]1C(=O)N[C@@H](CCC(=O)O)C(=O)N[C@@H](CC(=O)O)C(=O)N1CCC[C@H]1C(=O)O [GVSEpYELPEDP]
- Kd (CrkL SH2 domain [4]): > 50000 nM

Molecule: EDPIpYDEPEGL [11-mer phosphotyrosine peptide, p62DOK1 (Y362)]
- Array positive (Abl1 SH2 domain): Yes (Array-positive binding was ascribed to interactions with intensities greater than three times the array mean)
- Array positive (Nck1 SH2 domain): Yes (Array-positive binding was ascribed to interactions with intensities greater than three times the array mean)
- Other SH2 domains bound (additional array-positive SH2 domains) (panel of 50 SH2 domains): Blk, Hck, Lck, Lyn, Shc1, Src

Molecule: STVEpYSTVVHS [11-mer phosphotyrosine control peptide, gp130/IL-6 Receptor (Y759), reference compound]
- Array positive [5]: No (Peptide spots with average intensity values between 1X-3X the array mean were defined as ‘indeterminate’. Those with intensities below 1X mean were defined as array negative)
- Peptide array intensity (X mean) (Ptpn11_C SH2 domain): 2.8 X Mean
- Peptide array intensity (X mean) (Ptpn11_N SH2 domain): 1.33 X Mean
- Other SH2 domains bound (additional array-positive SH2 domains) (panel of 50 SH2 domains): PTPN11_N is 1.33X Mean, PTPN11_C is 2.8X Mean Brdg1, Brk, Sh2d1b
